Changes are numbered by the printed parent chain. Where two headings read alike, the source gives them in different places.

Assay [1] deals with T1, hGAT1 (Homo sapiens, UniProt P30531).
T1 construct: expressed in transfected cells
The experiment in a line: [3H]GABA uptake inhibition at hGAT1 stably expressed in CHO Flp-In cells. The assay is classed as cell-based. Particulars: 30 nM [3H]GABA, 3 min, CHO Flp-In cells stably expressing hGAT1; read-out: IC50 hGAT1. The procedure:
CHO Flp-In and tsA201 cells were cultured at 37 °C in a humidified atmosphere of […] and 5% CO2. As previously described[38],[63], CHO Flp-In cells stably expressing the hGATs were cultured in Ham’s F12 Nutrient Mix supplemented with 10% FBS, 1% P/S and plasmocin (5 µg/mL) under the selection pressure of hygromycin B (200 µg/mL). DMEM with GlutaMAX-I supplemented with 10% FBS and 1% P/S was used as growth medium for the tsA201 cells, which were transfected with DNA constructs using PolyFect according to the manufacturer’s specifications (Qiagen, West Sussex, UK), but with half of the recommended reagent volumes.
Uptake assays were performed in PDL-coated white 96-well polystyrene cell culture microplates (PerkinElmer, Boston, MA, USA) as previously described[38],[63]. […] Assay buffer was HBSS supplemented with 20 mM HEPES, 1 mM CaCl2 and 1 mM MgCl2, pH 7.4. […] After termination, scintillation liquid (MicroScint-20, PerkinElmer) was added and the radioactivity measured in a TopCount NXT Microplate Scintillation Counter (PerkinElmer).
Data analysis and statistical evaluation were performed in GraphPad Prism 7.02 (GraphPad Software, San Diego, CA, USA). Concentration-uptake inhibition curves, generated from the radioligand-based uptake assays, were fitted by non-linear regression, using the equation for sigmoidal concentration–response with variable slope: Y = Bottom + (Top–Bottom)/(1 + 10^((logIC50 − X) × HillSlope)), where Y is the response, X is the logarithm of the concentration, Top and Bottom are the plateaus in same units as Y, logIC50 is the concentration giving a response halfway between Bottom and Top, and the HillSlope is the steepness of the curve. For the substrate concentration–response curves generated from the FMP assay, the same equation was used but with logEC50 instead for logIC50. Unless otherwise stated, data are presented as means ± S.E.M. of at least three independent pooled experiments performed in triplicates.

Assay [2] addresses T2, hGAT3 wt (Homo sapiens, UniProt P48066).
T2 construct: expressed in transfected cells; host or cells: tsA201 cells, transient (PolyFect), pcDNA5/FRT vector
T2 sequence (P48066 1-632): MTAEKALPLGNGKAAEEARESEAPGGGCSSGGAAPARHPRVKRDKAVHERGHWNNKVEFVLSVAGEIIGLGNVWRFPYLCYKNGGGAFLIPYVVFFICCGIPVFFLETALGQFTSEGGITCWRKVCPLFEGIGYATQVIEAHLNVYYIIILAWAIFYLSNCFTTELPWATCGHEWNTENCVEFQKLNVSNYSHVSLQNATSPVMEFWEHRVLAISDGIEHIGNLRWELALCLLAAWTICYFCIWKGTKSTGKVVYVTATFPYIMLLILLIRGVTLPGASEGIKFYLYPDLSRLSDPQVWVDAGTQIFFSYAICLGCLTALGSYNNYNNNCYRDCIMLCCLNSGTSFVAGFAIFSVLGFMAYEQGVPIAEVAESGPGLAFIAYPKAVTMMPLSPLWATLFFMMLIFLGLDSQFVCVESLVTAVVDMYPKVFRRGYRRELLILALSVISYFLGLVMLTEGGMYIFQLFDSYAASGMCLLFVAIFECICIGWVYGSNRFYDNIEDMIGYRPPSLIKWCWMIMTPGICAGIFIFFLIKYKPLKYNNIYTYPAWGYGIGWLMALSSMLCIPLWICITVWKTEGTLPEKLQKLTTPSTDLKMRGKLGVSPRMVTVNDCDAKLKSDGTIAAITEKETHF
Kind of assay: [3H]GABA uptake inhibition at wt hGAT3 transiently expressed in tsA201 cells. The assay is classed as cell-based. Particulars: 30 nM [3H]GABA, transient expression.

For assay [3], the target named is T3, hGAT3 L314Q (Homo sapiens, UniProt P48066, L314Q).
T3 construct: expressed in transfected cells; host or cells: tsA201 cells, transient (PolyFect), pcDNA5/FRT vector
T3 sequence (P48066 1-632 L314Q): T2 sequence (P48066 1-632) with L314Q
The experiment in a line: [3H]GABA uptake inhibition at hGAT3 L314Q transiently expressed in tsA201 cells. The assay is classed as cell-based. Conditions: 30 nM [3H]GABA, transient expression.

Assay [4] addresses T4, hBGT1 E52A (Homo sapiens, UniProt P48065, E52A).
T4 sequence (P48065 1-614 E52A): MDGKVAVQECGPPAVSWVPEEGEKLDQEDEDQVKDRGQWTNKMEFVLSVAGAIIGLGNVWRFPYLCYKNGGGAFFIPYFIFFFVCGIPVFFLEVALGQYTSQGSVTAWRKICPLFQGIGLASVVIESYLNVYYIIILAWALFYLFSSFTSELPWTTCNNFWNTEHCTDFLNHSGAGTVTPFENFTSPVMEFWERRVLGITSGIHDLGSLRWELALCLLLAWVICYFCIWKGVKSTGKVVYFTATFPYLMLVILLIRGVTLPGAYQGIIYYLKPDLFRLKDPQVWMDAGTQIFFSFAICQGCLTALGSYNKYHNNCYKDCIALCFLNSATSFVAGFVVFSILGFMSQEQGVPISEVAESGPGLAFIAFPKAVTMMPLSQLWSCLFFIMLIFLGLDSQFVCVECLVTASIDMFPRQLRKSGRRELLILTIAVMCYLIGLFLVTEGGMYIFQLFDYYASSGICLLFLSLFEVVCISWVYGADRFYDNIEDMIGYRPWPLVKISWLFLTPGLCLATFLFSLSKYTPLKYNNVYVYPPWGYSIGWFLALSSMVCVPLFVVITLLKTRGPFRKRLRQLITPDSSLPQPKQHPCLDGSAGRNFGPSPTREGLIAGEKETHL
The experiment in a line: cell-based. Particulars: 30 nM [3H]GABA, tsA201 cells, transient expression.

The mark [5] stands for this setting: read-out: pIC50 ± S.E.M. GAT3 wt (converted).
The mark [6] stands for this setting: read-out: pIC50 ± S.E.M. GAT3 L314Q (converted).

T1 sequence (P30531 whole entry): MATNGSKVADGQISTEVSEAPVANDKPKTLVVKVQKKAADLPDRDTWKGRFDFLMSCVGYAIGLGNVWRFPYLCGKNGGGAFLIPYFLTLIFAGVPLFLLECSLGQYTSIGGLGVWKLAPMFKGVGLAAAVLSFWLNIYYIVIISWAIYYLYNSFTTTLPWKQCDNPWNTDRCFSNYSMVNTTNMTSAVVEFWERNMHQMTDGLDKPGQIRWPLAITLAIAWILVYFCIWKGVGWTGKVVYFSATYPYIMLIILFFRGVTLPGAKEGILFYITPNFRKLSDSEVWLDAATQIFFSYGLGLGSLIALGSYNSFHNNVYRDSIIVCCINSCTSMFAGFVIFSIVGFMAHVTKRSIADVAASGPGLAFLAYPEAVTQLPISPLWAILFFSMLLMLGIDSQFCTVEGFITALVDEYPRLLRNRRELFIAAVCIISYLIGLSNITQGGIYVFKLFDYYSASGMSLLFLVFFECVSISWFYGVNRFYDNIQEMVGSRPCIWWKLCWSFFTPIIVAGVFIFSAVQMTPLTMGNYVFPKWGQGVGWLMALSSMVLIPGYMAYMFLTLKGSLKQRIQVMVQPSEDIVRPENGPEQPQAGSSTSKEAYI

As to `C[C@@H]1N=C(N)NC[C@@H]1C(=O)O` (single isomer, unassigned) [l-15a], the IC50 in assay [1] was over 1000 µM; in assay [2] (read-out: IC50 GAT3 wt) it was over 1000 µM; in assay [3] (read-out: IC50 GAT3 L314Q) it was over 1000 µM; in assay [4] (pIC50 ± S.E.M. BGT1 E52A) it was 37.2 µM.
With `NC1=NCC(C(=O)O)CN1` (centres unmarked) [ATPCA, 2-amino-1,4,5,6-tetrahydropyrimidine-5-carboxylic acid, reference compound], the IC50 in assay [1] was over 1000 µM; in assay [2] (read-out: IC50 GAT3 wt), 851 µM; in assay [2] (setting [5]), 589 µM; in assay [3] (read-out: IC50 GAT3 L314Q), 66 µM; in assay [3] (setting [6]), 58.9 µM; in assay [4] (IC50 BGT1 E52A), 4.4 µM.
Regarding `NC1=NCC(C(=O)O)CC1` (centres unmarked) [compound 2, 6-amino-2,3,4,5-tetrahydropyridine-3-carboxylic acid, reference compound], the IC50 in assay [1] is 216 µM; in assay [2] (read-out: IC50 GAT3 wt) it was over 1000 µM; in assay [3] (read-out: IC50 GAT3 L314Q), 695 µM; in assay [4] (IC50 BGT1 E52A) it was 31 µM; in assay [4] (pIC50 ± S.E.M. BGT1 E52A) it was 30.2 µM.
Turning to `CCN1CC(C(=O)O)CN=C1N.Cl` (centres unmarked) [compound 3], the IC50 in assay [1] was over 1000 µM; in assay [2] (read-out: IC50 GAT3 wt) it was over 1000 µM; in assay [3] (read-out: IC50 GAT3 L314Q) it was over 1000 µM; in assay [4] (IC50 BGT1 E52A), 74 µM; in assay [4] (pIC50 ± S.E.M. BGT1 E52A), 72.4 µM.
For `Cl.NC1=NCC(C(=O)O)CN1Cc1ccccc1` (centres unmarked) [compound 4], the IC50 was over 1000 µM in assay [1]; 122 µM in assay [2] (read-out: IC50 GAT3 wt); 115 µM in assay [2] (setting [5]); 500 µM in assay [3] (read-out: IC50 GAT3 L314Q); 490 µM in assay [3] (setting [6]); 90 µM in assay [4] (IC50 BGT1 E52A). In assay [4] (pIC50 ± S.E.M. BGT1 E52A), this compound showed an IC50 of 87.1 µM.
On to `NC1=NC=C(C(=O)O)CN1.O=C(O)C(F)(F)F` [compound 11], for which the IC50 in assay [1] was over 1000 µM; in assay [2] (read-out: IC50 GAT3 wt), over 1000 µM; in assay [3] (read-out: IC50 GAT3 L314Q), over 1000 µM; in assay [4] (IC50 BGT1 E52A), 247 µM; in assay [4] (pIC50 ± S.E.M. BGT1 E52A), 240 µM.

Source of the values: paper PMC7400577 (Scientific Reports, 2020).
